Data from patent publication US20090253669A1, “Substituted Sulfonamide Compounds” (GRUENENTHAL GmbH, priority 2008, published 2009).

Key:
[1] = target: T1, B1R receptor of the rat (rB1R) (Rattus norvegicus, UniProt P97583); assay: FLIPR Ca2+ assay on rB1R-transfected CHO K1 cells, antagonistic action; type: cell-based; conditions: CHO-K1, 10 μM test substance; agonist Des-Arg9-bradykinin 100 nM; % of maximum achievable inhibition; read-out: rB1R [10 μM] % inhibition
T1 construct: host or cells: CHO K1 cells
T1 sequence (P97583 1-337): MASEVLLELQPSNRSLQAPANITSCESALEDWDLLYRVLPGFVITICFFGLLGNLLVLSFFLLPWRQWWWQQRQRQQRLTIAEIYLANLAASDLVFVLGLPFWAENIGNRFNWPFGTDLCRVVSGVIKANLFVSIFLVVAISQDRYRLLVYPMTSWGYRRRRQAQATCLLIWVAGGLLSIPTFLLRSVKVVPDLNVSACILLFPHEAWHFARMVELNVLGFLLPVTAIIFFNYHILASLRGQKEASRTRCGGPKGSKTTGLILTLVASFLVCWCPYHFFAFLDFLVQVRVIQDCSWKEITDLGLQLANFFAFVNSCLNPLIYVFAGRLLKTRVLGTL

[2] = target: T2, human B1R receptor (hB1R) (Homo sapiens, UniProt P46663); assay: FLIPR Ca2+ assay on hB1R-transfected CHO K1 cells, antagonistic action; type: cell-based; conditions: CHO-K1, 10 μM test substance; agonist Lys-Des-Arg9-bradykinin 0.5 nM; % of maximum achievable inhibition; read-out: hB1R [10 μM] % inhibition
T2 construct: host or cells: CHO K1 cells
T2 sequence (P46663 1-353): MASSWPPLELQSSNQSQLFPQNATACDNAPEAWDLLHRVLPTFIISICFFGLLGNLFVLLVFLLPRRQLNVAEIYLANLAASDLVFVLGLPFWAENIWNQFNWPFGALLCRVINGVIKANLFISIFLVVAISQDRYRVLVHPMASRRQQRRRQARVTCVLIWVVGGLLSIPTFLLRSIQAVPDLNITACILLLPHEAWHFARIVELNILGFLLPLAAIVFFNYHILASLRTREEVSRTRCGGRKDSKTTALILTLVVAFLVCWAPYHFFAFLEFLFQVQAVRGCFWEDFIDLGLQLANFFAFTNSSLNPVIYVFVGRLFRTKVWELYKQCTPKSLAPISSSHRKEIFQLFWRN

In the case of `CN(CCC1CCC(c2ccccc2)(N(C)C)CC1)C(=O)COCC1CCc2ccccc2N1S(=O)(=O)c1ccc(Cl)c(Cl)c1` (centres unmarked) [Compound 111, 2-((1-(3,4-dichlorophenylsulfonyl)-1,2,3,4-tetrahydroquinolin-2-yl)methoxy)-N-(2-(4-(dimethylamino)-4-phenylcyclohexyl)ethyl)-N-methylacetamide], the inhibition at 10 µM [1] is reported as 78% and the inhibition at 10 µM [2] is reported as 80%.

Compound `CN(CC1CCC(Cc2ccccc2)(N2CCCC2)CC1)C(=O)CC1CCCCN1S(=O)(=O)c1cccc(C(F)(F)F)c1` (centres unmarked) [Compound 94, N-((4-benzyl-4-(pyrrolidin-1-yl)cyclohexyl)methyl)-N-methyl-2-(1-(3-(trifluoromethyl)phenylsulfonyl)piperidin-2-yl)acetamide] has an inhibition at 10 µM [1] of 93% and an inhibition at 10 µM [2] of 64%.

`COc1cc(C)c(S(=O)(=O)N(C)CCOCC(=O)N(C)CCC2CCC(Cc3ccccc3)(N(C)C)CC2)c(C)c1` (centres unmarked) [Compound 53, N-(2-(4-benzyl-4-(dimethylamino)cyclohexyl)ethyl)-2-(2-(4-methoxy-N,2,6-trimethylphenylsulfonamido)ethoxy)-N-methylacetamide] was tested, and the inhibition at 10 µM [1] was 100% and the inhibition at 10 µM [2] was 103%.

In the case of `CN1CCN(C2(c3ccc(F)cc3)CCN(C(=O)CC(NS(=O)(=O)c3ccc4ccccc4c3)c3ccccc3)CC2)CC1` (centres unmarked) [Compound 96, N-(3-(4-(4-fluorophenyl)-4-(4-methylpiperazin-1-yl)piperidin-1-yl)-3-oxo-1-phenylpropyl)naphthalene-2-sulfonamide], the inhibition at 10 µM [1] is reported as 91% and the inhibition at 10 µM [2] is reported as 100%.

`COc1cc(C)c(S(=O)(=O)N(C)CCOCC(=O)N(C)CC2CCC(c3ccccc3)(N3CCCC3)CC2)c(C)c1` (centres unmarked) [Compound 35, 2-(2-(4-methoxy-N,2,6-trimethylphenylsulfonamido)ethoxy)-N-methyl-N-((4-phenyl-4-(pyrrolidin-1-yl)cyclohexyl)methyl)acetamide] showed an inhibition at 10 µM [1] of 101% and an inhibition at 10 µM [2] of 102%.

`COc1cc(C)c(S(=O)(=O)N2CCCCC2COCC(=O)N(C)CCC2CCC(CCc3ccccc3)(N3CCCC3)CC2)c(C)c1` (centres unmarked) [Compound 46, 2-((1-(4-methoxy-2,6-dimethylphenylsulfonyl)piperidin-2-yl)methoxy)-N-methyl-N-(2-(4-phenethyl-4-(pyrrolidin-1-yl)cyclohexyl)ethyl)acetamide] showed an inhibition at 10 µM [1] of 100% and an inhibition at 10 µM [2] of 104%.

Work on `COc1cc(C)c(S(=O)(=O)N2CCCC(COCC(=O)N(C)CC3CCC(CCc4ccccc4)(N4CCN(C)CC4)CC3)C2)c(C)c1` (centres unmarked) [Compound 182, 2-((1-(4-methoxy-2,6-dimethylphenylsulfonyl)piperidin-3-yl)methoxy)-N-methyl-N-((4-(4-methylpiperazin-1-yl)-4-phenethylcyclohexyl)methyl)acetamide] yielded an inhibition at 10 µM [1] of 67% and an inhibition at 10 µM [2] of 106%.

`CN(CCC1CCC(Cc2ccccc2)(N(C)C)CC1)C(=O)CC1CCCCN1S(=O)(=O)c1cccc(C(F)(F)F)c1` (centres unmarked) [Compound 95, N-(2-(4-benzyl-4-(dimethylamino)cyclohexyl)ethyl)-N-methyl-2-(1-(3-(trifluoromethyl)phenylsulfonyl)piperidin-2-yl)acetamide] gave an inhibition at 10 µM [1] of 93% and an inhibition at 10 µM [2] of 99%.

`COc1cc(C)c(S(=O)(=O)N(C)CCOCC(=O)NC2CCC(c3cccc(F)c3)(N(C)C)CC2)c(C)c1` (centres unmarked) [Compound 6, N-(4-(dimethylamino)-4-(3-fluorophenyl)cyclohexyl)-2-(2-(4-methoxy-N,2,6-trimethylphenylsulfonamido)ethoxy)acetamide] showed an inhibition at 10 µM [1] of 100% and an inhibition at 10 µM [2] of 100%.

Work on `COc1cc(C)c(S(=O)(=O)N2CCCCC2COCC(=O)N2CCC(Cc3ccccc3)(N3CCN(C)CC3)CC2)c(C)c1` (centres unmarked) [Compound 57, 1-(4-benzyl-4-(4-methylpiperazin-1-yl)piperidin-1-yl)-2-((1-(4-methoxy-2,6-dimethylphenylsulfonyl)piperidin-2-yl)methoxy)ethanone] yielded an inhibition at 10 µM [1] of 100% and an inhibition at 10 µM [2] of 100%.

`Cc1cc(S(=O)(=O)N2CCCCC2CCC(=O)N(C)CCC2CCC(Cc3ccccc3)(N3CCCC3)CC2)c(C)cc1Cl` (centres unmarked) [Compound 117, N-(2-(4-benzyl-4-(pyrrolidin-1-yl)cyclohexyl)ethyl)-3-(1-(4-chloro-2,5-dimethylphenylsulfonyl)piperidin-2-yl)-N-methylpropanamide] gave an inhibition at 10 µM [1] of 70% and an inhibition at 10 µM [2] of 103%.

`CN(C)C1(CCc2ccccc2)CCN(C(=O)CC(NS(=O)(=O)c2ccc3ccccc3c2)c2ccccc2)CC1` (centres unmarked) [Compound 105, N-(3-(4-(dimethylamino)-4-phenethylpiperidin-1-yl)-3-oxo-1-phenylpropyl)naphthalene-2-sulfonamide] gave an inhibition at 10 µM [1] of 81% and an inhibition at 10 µM [2] of 83%.

`Cc1cc(S(=O)(=O)N2CCCCC2CCC(=O)N(C)CC2CCC(c3ccccc3)(N3CCCC3)CC2)c(C)cc1Cl` (centres unmarked) [Compound 140, 3-(1-(4-chloro-2,5-dimethylphenylsulfonyl)piperidin-2-yl)-N-methyl-N-((4-phenyl-4-(pyrrolidin-1-yl)cyclohexyl)methyl)propanamide] was tested, and the inhibition at 10 µM [1] was 21% and the inhibition at 10 µM [2] was 103%.

In the case of `COc1cc(C)c(S(=O)(=O)N(C)CCOCC(=O)N2CCC(N)(c3ccccc3)CC2)c(C)c1` [Compound 196, N-(2-(2-(4-Amino-4-phenylpiperidin-1-yl)-2-oxoethoxy)ethyl)-4-methoxy-N,2,6-trimethylbenzenesulfonamide], the inhibition at 10 µM [1] is reported as 100% and the inhibition at 10 µM [2] is reported as 103%.

For `COc1cc(C)c(S(=O)(=O)N(C)CCOCC(=O)N2CCC(Cc3ccccc3)(N(C)C)CC2)c(C)c1` [Compound 63, N-(2-(2-(4-benzyl-4-(dimethylamino)piperidin-1-yl)-2-oxoethoxy)ethyl)-4-methoxy-N,2,6-trimethylbenzenesulfonamide], the inhibition at 10 µM [1] was 100% and the inhibition at 10 µM [2] was 102%.

`CN(CC1CCC(CCc2ccccc2)(N2CCCC2)CC1)C(=O)CC1CCCCN1S(=O)(=O)c1cccc(C(F)(F)F)c1` (centres unmarked) [Compound 38, N-methyl-N-((4-phenethyl-4-(pyrrolidin-1-yl)cyclohexyl)methyl)-2-(1-(3-(trifluoromethyl)phenylsulfonyl)piperidin-2-yl)acetamide] gave an inhibition at 10 µM [1] of 101% and an inhibition at 10 µM [2] of 98%.

Work on `Cc1cc(S(=O)(=O)N2CCCCC2CCC(=O)N(C)CCCC2CCC(Cc3ccccc3)(N3CCCC3)CC2)c(C)cc1Cl` (centres unmarked) [Compound 124, N-(3-(4-benzyl-4-(pyrrolidin-1-yl)cyclohexyl)propyl)-3-(1-(4-chloro-2,5-dimethylphenylsulfonyl)piperidin-2-yl)-N-methylpropanamide] yielded an inhibition at 10 µM [1] of 58% and an inhibition at 10 µM [2] of 98%.

Compound `COc1cc(C)c(S(=O)(=O)N(C)CCOCC(=O)N(C)CC2CCC(CCc3ccccc3)(N3CCCC3)CC2)c(C)c1` (centres unmarked) [Compound 47, 2-(2-(4-methoxy-N,2,6-trimethylphenylsulfonamido)ethoxy)-N-methyl-N-((4-phenethyl-4-(pyrrolidin-1-yl)cyclohexyl)methyl)acetamide] has an inhibition at 10 µM [1] of 100% and an inhibition at 10 µM [2] of 102%.

Work on `COc1cc(C)c(S(=O)(=O)N2CCCCC2COCC(=O)N(C)CCCC2CCC(c3ccccc3)(N(C)C)CC2)c(C)c1` (centres unmarked) [Compound 203, N-(3-(4-(dimethylamino)-4-phenylcyclohexyl)propyl)-2-((1-(4-methoxy-2,6-dimethylphenylsulfonyl)piperidin-2-yl)methoxy)-N-methylacetamide] yielded an inhibition at 10 µM [1] of 98% and an inhibition at 10 µM [2] of 99%.

In the case of `COc1cc(C)c(S(=O)(=O)N(C)CCOCC(=O)NC2CCC(Cc3ccccc3C)(N(C)C)CC2)c(C)c1` (centres unmarked) [Compound 10, N-(4-(dimethylamino)-4-(2-methylbenzyl)cyclohexyl)-2-(2-(4-methoxy-N,2,6-trimethylphenylsulfonamido)ethoxy)acetamide], the inhibition at 10 µM [1] is reported as 95% and the inhibition at 10 µM [2] is reported as 103%.

`Cc1cccc(Cl)c1S(=O)(=O)N1CCCCC1CCCC(=O)N1CCC(c2cccc(F)c2)(N2CCN(C)CC2)CC1` (centres unmarked) [Compound 212, 4-(1-(2-Chloro-6-methylphenylsulfonyl)piperidin-2-yl)-1-(4-(3-fluorophenyl)-4-(4-methylpiperazin-1-yl)piperidin-1-yl)butan-1-one] gave an inhibition at 10 µM [1] of 100% and an inhibition at 10 µM [2] of 100%.

Compound `CN1CCN(C2(CCc3ccccc3)CCC(CN(C)C(=O)COCC3CCCCN3S(=O)(=O)c3c(Cl)cc(Cl)cc3Cl)CC2)CC1` (centres unmarked) [Compound 161, N-methyl-N-((4-(4-methylpiperazin-1-yl)-4-phenethylcyclohexyl)methyl)-2-((1-(2,4,6-trichlorophenylsulfonyl)piperidin-2-yl)methoxy)acetamide] has an inhibition at 10 µM [1] of 98% and an inhibition at 10 µM [2] of 101%.
